Laboratory results taken from patent publication US9085795B2, “Methods for screening candidate agents for modulating prorenin and renin, assays for detecting prorenin and antibodies” (MOLECULAR INNOVATIONS, INC., priority 2009, dated 2015).
“And” between values parts separate entries of the source, which are not always exact repeats. Identical values can stand only once. Like-named read-outs stand apart in the source and are kept apart here. No end group written: not given here. *: point of attachment. Biotin = O=C1N[C@H]2[C@H](CS[C@H]2CCCCC(=O)*)N1

Experiments:
[1] = tested on: monoclonal antibody 4B5-E3; conditions: peptides bound to avidin coated plates at 1 μg/ml, absorbance at 450 nm
Description: Cell supernatants were loaded on an IMMULON™ (Thermo Fisher Scientific Inc., Waltham, Mass.) strip plate coated with prorenin and blocked. […] Strips were then washed three times, and developed with TMB 1 (Kirkegaard & Perry Laboratories, Inc., Gaithersburg, Md.) substrate for 5 minutes; solution was quenched with 1N H2SO4. The IMMULON™ plate was read on a microtiter plate spectrophotometer with a set absorbance at 450 nm. Optical density (OD) measurements higher than 3.0 were considered positive clones.
These four peptides were bound to avidin coated plates at a concentration of 1 μg/ml and purified monoclonal 4B5-E3 binding was determined per the screening procedure described earlier.

[2] = target: T1, renin (Homo sapiens, UniProt P00797); assay: Renin activity assay: cleavage of biotin-[…] by renin, detected with the antibody of the invention on avidin-coated plate; assay type: biochemical; conditions: Renin at 10 ug/ml, aliskiren at 10X excess molar conc.
T1 construct: Renin is produced by cleavage of the 395 amino acid zymogen prorenin
T1 sequence (P00797 67-406): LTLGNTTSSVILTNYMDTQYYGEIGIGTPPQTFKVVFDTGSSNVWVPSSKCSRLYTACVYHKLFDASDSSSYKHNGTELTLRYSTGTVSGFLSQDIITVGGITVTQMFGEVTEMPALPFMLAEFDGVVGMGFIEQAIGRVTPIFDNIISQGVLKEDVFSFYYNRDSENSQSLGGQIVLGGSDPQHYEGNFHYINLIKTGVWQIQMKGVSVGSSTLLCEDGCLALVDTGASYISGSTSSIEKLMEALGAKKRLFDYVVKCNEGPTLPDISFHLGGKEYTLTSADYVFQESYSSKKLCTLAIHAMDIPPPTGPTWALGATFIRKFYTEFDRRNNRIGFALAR
Description: In accordance with the invention, renin was preincubated in the presence and absence of aliskiren, a known renin inhibitor for approximately 2 hours at 37° C. in 50 mM HEPES, 2 mM EDTA, 1% DMA, 0.5% BSA, pH 7.0. This mixture of renin +/−aliskiren was then contacted with biotin-[…] and incubated at 37° C. for approximately eighteen hours. The reaction mixture was then added to an avidin-coated microtiter plate and allowed to adhere thereto for 30 minutes at room temperature and then washed three times with wash buffer, containing 10 mM Tris, 150 mM NaCl, 0.1% BSA and 0.05% Tween. Then 100 μl of the antibody of the invention was added to each well of the microtiter plate and incubated for 30 minutes at room temperature and again washed with wash buffer. Then 100 μl of horse radish peroxidase conjugated goat anti-mouse subclass Fc was added to each well, incubated for 30 minutes at room temperature and washed with wash buffer. Then 100 μl of TMB ONE Solution™, available from Promega Corporation of Madison, Wis., was added to all wells, incubated for five minutes at room temperature. The reaction was stopped with 50 μl 1N H2SO4 and read at 450 nm.

Row | Compound | binding of peptide to monoclonal antibody 4B5-E3 [1] | also measured
1 | Biotin-RLGPEWSQPMKR [Peptide 4.2] | Biotin-RLGPEWSQPMKR (binds monoclonal) | –
2 | Biotin-GVDMARLGPEWSQPMKR [Peptide 4] | Biotin-GVDMARLGPEWSQPMKR (binds monoclonal) | binding of peptide to monoclonal antibody 4B5-E3 ([1]; listed as peptide 4): positive result
3 | Biotin-ARLGPEWSQPMKR [Peptide 4.1] | Biotin-ARLGPEWSQPMKR (binds monoclonal) | –
4 | Biotin-ARLGPEWS [Peptide 4.5] | binds monoclonal | binding of peptide to monoclonal antibody 4B5-E3 ([1]; listed as ARLGPEWS): bound to the monoclonal antibody
5 | Biotin-ARLGPEWSQ [Peptide 4.4] | binds monoclonal | binding of peptide to monoclonal antibody 4B5-E3 ([1]; listed as ARLGPEWSQ): bound to the monoclonal antibody
6 | Biotin-ARLGPEW [Peptide 4.6] | does not bind monoclonal | –
7 | Biotin-LGPEWSQPMKR [Peptide 4.3] | Biotin-LGPEWSQPMKR (does not bind monoclonal) | –
8 | COCCCOc1cc(C[C@@H](C[C@H](N)[C@@H](O)C[C@H](C(=O)NCC(C)(C)C(N)=O)C(C)C)C(C)C)ccc1OC [aliskiren] | – | inhibition of cleavage of the substrate peptide by renin [2]: inhibition of cleavage of the substrate peptide by renin; signal read at 450 nM (uncleaved substrate peptide), renin + inhibitor ([2]; preincubated approximately 2 hours at 37° C., substrate approximately eighteen hours): 3.363 and 3.481 and 3.596 and 3.824 and 3.754 and 3.497
